Data published in US20210040452A1, “HEMATOPOIETIC CELLS AND METHODS OF USING AND GENERATING THE SAME” (The Regents of the University of California, priority 2015, published 2021).

Key:
mouse embryos at E12.5 = assay: Mitotic arrest by nocodazole injection into mouse embryos; type: in vivo; conditions: E12.5, 2 hrs prior to sacrifice
murine HSPCs = assay: Addition of Tgfβ1 to newly formed murine HSPCs; type: cell-based; conditions: preliminary mouse studies
[1] = system: wild type E11 whole AGM explants; assay: AGM explant culture with DAPT, HE ratio by FACS; type: cell-based, mouse
Source text: Currently it is not possible to predict which specific endothelial cell within a hemogenic vascular bed will transition to a hematopoietic fate. Also not known is whether endothelial cells comprising the same hemogenic site are all capable of EHT. So whether the actual cell fate conversion is a stochastic event or a predetermined fate change remains to be seen. To circumvent the current obstacles of EHT prediction, we adopted a fate tracing strategy^48 that allows measurement of traced hematopoietic cell populations from labeled endothelial precursors within a specific hemogenic vascular site. By inducing endothelial recombination of Sox17 in AGM explants using the Cdh5(PAC)-CreERT2/RTom/Sox17flox transgenic mouse line, the number of EHT derived hematopoietic cells can be quantified through fate mapping (FIG. 13c, and FIG. 25C). Tamoxifen induction in vitro with the active metabolite 4-hydroxytamoxifen (4-OHT) at E11.0 allows immediate ablation in AGM explants during EHT, and the calculation of a HE ratio which we define as traced hematopoietic cells (HCs) compared to traced endothelial cells (ECs). […] The observed increase in HE ratios and HSPC number is not due to proliferation effects (as measured by BrdU incorporation, FIG. 25D), nor is the higher HE ratio due to changes in cell death (Annexin-V staining, supplementary FIG. 25D). We also observe increases in maturing hematopoietic populations (CD31−CD117+Sca1+Td+), FIG. 25E. In addition, when a similar strategy is applied to earlier explants (E9.5) prior to hematopoietic cell cluster emergence, we observe similar trends in the HE ratio (FIG. 25F). […] To further evaluate the role of Sox17 in this process, we undertook gain-of-function studies in wildtype AGM explants using adenoviral-mediated overexpression of human Sox17 (AdhSox17-GFP), FIG. 13g. GFP expression in explants overlapped with SOX17 co-staining (FIG. 13h), allowing for cell sorting of AGM endothelial cells (CD31+) that were either successfully infected (GFP+) or not infected (GFP−) by AdhSox17-GFP, FIG. 13i. […] We also show the known positive regulation of Notch1 by Sox17, and regulation of other SoxF family members, Sox7 and Sox18.
Whole embryos or AGMs were dissociated as described67 and stained for 30 min at 4° C. with agitation. Single cell suspensions were sorted in a BD FACS Aria III. Flow cytometric analyses were performed on a FACS Verse or FACS Aria III with FACSDiva 8.0 software (BD Biosciences) and data analyzed using FlowJo v10.0.7 (Tree Star). Gating strategy in FIG. 25C, see Table 7 for a list of antibodies.
AGMs from Cdh5(PAC)-CreERT2/R26RTd/Sox17 and Notch1 floxed embryos were dissected and cultured for 24 hrs in 4-hydroxytamoxifen 4-OHT (Sigma H7904) as previously described48, at E11 (and E9.5 for Sox17 mutants). In vivo induction was achieved by intraperitoneal injection of 0.8 mg of tamoxifen of pregnant dams at E9.5. Tamoxifen (MP Biomedical, 156738) prepared as previously described48. DAPT γ-secretase inhibitor (Sigma, D5942) was prepared in DMSO and added directly to explant culture medium at final concentrations of 25 μM, 50 μM, 100 μM, or 200 μM. For overexpression studies, AGMs were incubated with 8×10^7 adenoviral particles per milliliter at 37 C with agitation for 1 hr prior to explant culture48. Adeno-CMV-hSox17-GFP (AdhSox17-GFP) was produced by Vector Biolabs (ADV-224019, Ref Seq: BC140307).

COC(=O)Nc1nc2ccc(C(=O)c3cccs3)cc2[nH]1 [nocodazole]
mitotic arrest in the endothelium (mouse embryos at E12.5): not arrested in mitosis | mitotic arrest in the myocardium (mouse embryos at E12.5): multiple cell division arrests

Tgfβ1: transforming growth factor β1
maturation of HSPCs (murine HSPCs): may accelerate their maturation

C[C@H](NC(=O)Cc1cc(F)cc(F)c1)C(=O)N[C@H](C(=O)OC(C)(C)C)c1ccccc1 [DAPT]
HE ratios after AGM explants were exposed [1]: increased HE ratios | HE ratio in comparison to control ([1]; 50-100 μM DAPT, 24 hours, control DMSO): significant increase | Wildtype HE ratio (DAPT), Mean ([1]; WT + 25 μM, 24 hours): 0.9771 | Wildtype HE ratio (DAPT), Mean ([1]; WT + 50 μM, 24 hours): 0.9702 | Wildtype HE ratio (DAPT), Mean ([1]; WT + 100 μM, 24 hours): 0.9649 | Wildtype HE ratio (DAPT), Mean ([1]; WT + 200 μM, 24 hours): 0.8264
